Molecular target: T1, ZBTB25 (Homo sapiens, UniProt P24278)
T1 construct: recombinant ZBTB25 protein
T1 sequence (P24278 1-435): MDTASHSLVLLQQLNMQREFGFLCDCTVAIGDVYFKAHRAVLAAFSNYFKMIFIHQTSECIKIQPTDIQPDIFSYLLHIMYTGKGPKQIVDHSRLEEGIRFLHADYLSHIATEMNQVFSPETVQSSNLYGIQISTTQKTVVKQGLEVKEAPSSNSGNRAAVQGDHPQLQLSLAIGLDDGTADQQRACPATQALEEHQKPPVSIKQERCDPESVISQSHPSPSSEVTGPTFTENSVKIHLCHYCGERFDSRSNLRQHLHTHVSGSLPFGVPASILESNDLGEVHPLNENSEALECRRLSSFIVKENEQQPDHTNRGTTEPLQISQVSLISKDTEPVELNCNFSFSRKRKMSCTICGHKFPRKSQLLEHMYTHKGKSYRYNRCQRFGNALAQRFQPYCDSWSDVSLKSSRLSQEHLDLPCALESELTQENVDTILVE
Test: zinc ejection assay with FluoZin-3 fluorescence
Format: binding

Compound	IC50 [µM]
dithiopyridine [DP]	4.61 ± 0.28
CCN(CC)C(=S)SSC(=S)N(CC)CC [DS, disulfiram]	10.3 ± 0.3

Source: article PMC8544881 (mSphere, 2021)
